Legend:
Experiment in all cases: relative viability (nuclei count vs DMSO), 5 days (fraction); higher = more cells survive
HOP-62 = system: HOP-62
How it was run: (§1)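 Each reported value is a median over duplicate plates. It expresses relative viability: treated-well nuclei count divided by vehicle-well nuclei count. Lung cancer cell lines in 1536-well plates were dosed by pin tool a day after seeding, alone with one drug or with a fixed anchor-drug dose plus five library-drug doses (not always all listed) in √10 steps, and nuclei were counted after 5 days.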

HCC-827 = system: HCC-827
How it was run: as §1

NCI-H1437 = system: NCI-H1437
How it was run: as §1

LCLC-103H = system: LCLC-103H
How it was run: as §1

A-427 = system: A-427
How it was run: as §1

NCI-H1792 = system: NCI-H1792
How it was run: as §1

NCI-H1395 = system: NCI-H1395
How it was run: as §1

NCI-H1355 = system: NCI-H1355
How it was run: as §1

NCI-H460 = system: NCI-H460
How it was run: as §1

HARA = system: HARA
How it was run: as §1

NCI-H727 = system: NCI-H727
How it was run: as §1

NCI-H1755 = system: NCI-H1755
How it was run: as §1

EMC-BAC-2 = system: EMC-BAC-2
How it was run: as §1

NCI-H522 = system: NCI-H522
How it was run: as §1

NCI-H23 = system: NCI-H23
How it was run: as §1

NCI-H1915 = system: NCI-H1915
How it was run: as §1

HCC-366 = system: HCC-366
How it was run: as §1

NCI-H1975 = system: NCI-H1975
How it was run: as §1

CAL-12T = system: CAL-12T
How it was run: as §1

## COc1cc(N2CCC(C(N)=O)CC2)ccc1Nc1nc(N)c(Cl)c(Nc2ccccc2S(=O)(=O)C(C)C)n1 [HG-5-88-01] + NC(=O)Nc1cc(-c2cccc(F)c2)sc1C(=O)N[C@H]1CCCNC1 [AZD7762] (partner 0.2 µM)
HOP-62; first compound 0.04 µM
  relative viability: 0.463
HOP-62; first compound 0.1265 µM
  relative viability: 0.736
HOP-62; first compound 0.4 µM
  relative viability: 0.654
HOP-62; first compound 1.265 µM
  relative viability: 0.55
HOP-62; first compound 4 µM
  relative viability: 0.584
HCC-827; first compound 0.04 µM
  relative viability: 0.313
HCC-827; first compound 0.1265 µM
  relative viability: 0.184
HCC-827; first compound 0.4 µM
  relative viability: 0.167
HCC-827; first compound 1.265 µM
  relative viability: 0.129
HCC-827; first compound 4 µM
  relative viability: 0.123
NCI-H1437; first compound 0.04 µM
  relative viability: 1.13
NCI-H1437; first compound 0.1265 µM
  relative viability: 1.13
NCI-H1437; first compound 0.4 µM
  relative viability: 1.07
NCI-H1437; first compound 4 µM
  relative viability: 1.2
LCLC-103H; first compound 0.04 µM
  relative viability: 0.803
LCLC-103H; first compound 0.1265 µM
  relative viability: 0.761
LCLC-103H; first compound 0.4 µM
  relative viability: 0.616
LCLC-103H; first compound 1.265 µM
  relative viability: 0.828
LCLC-103H; first compound 4 µM
  relative viability: 0.697
A-427; first compound 0.04 µM
  relative viability: 0.67
A-427; first compound 0.1265 µM
  relative viability: 0.776
A-427; first compound 0.4 µM
  relative viability: 0.744
A-427; first compound 1.265 µM
  relative viability: 0.656
A-427; first compound 4 µM
  relative viability: 0.679
NCI-H1792; first compound 0.04 µM
  relative viability: 0.752
NCI-H1792; first compound 0.1265 µM
  relative viability: 0.648
NCI-H1792; first compound 0.4 µM
  relative viability: 0.645
NCI-H1792; first compound 1.265 µM
  relative viability: 0.581
NCI-H1792; first compound 4 µM
  relative viability: 0.557
NCI-H1395; first compound 0.04 µM
  relative viability: 0.366
NCI-H1395; first compound 0.1265 µM
  relative viability: 0.403
NCI-H1395; first compound 0.4 µM
  relative viability: 0.418
NCI-H1395; first compound 1.265 µM
  relative viability: 0.384
NCI-H1395; first compound 4 µM
  relative viability: 0.362
NCI-H1355; first compound 0.04 µM
  relative viability: 0.714
NCI-H1355; first compound 0.1265 µM
  relative viability: 0.731
NCI-H1355; first compound 0.4 µM
  relative viability: 0.762
NCI-H1355; first compound 1.265 µM
  relative viability: 0.69
NCI-H1355; first compound 4 µM
  relative viability: 0.474
NCI-H460; first compound 0.04 µM
  relative viability: 0.7
NCI-H460; first compound 0.1265 µM
  relative viability: 0.63
NCI-H460; first compound 0.4 µM
  relative viability: 0.561
NCI-H460; first compound 1.265 µM
  relative viability: 0.611
NCI-H460; first compound 4 µM
  relative viability: 0.592
HARA; first compound 0.04 µM
  relative viability: 0.493
HARA; first compound 0.1265 µM
  relative viability: 0.313
HARA; first compound 0.4 µM
  relative viability: 0.332
HARA; first compound 1.265 µM
  relative viability: 0.352
HARA; first compound 4 µM
  relative viability: 0.322
NCI-H727; first compound 0.04 µM
  relative viability: 0.729
NCI-H727; first compound 0.1265 µM
  relative viability: 0.633
NCI-H727; first compound 0.4 µM
  relative viability: 0.597
NCI-H727; first compound 4 µM
  relative viability: 0.377
NCI-H1755; first compound 0.04 µM
  relative viability: 0.465
NCI-H1755; first compound 0.1265 µM
  relative viability: 0.476
NCI-H1755; first compound 0.4 µM
  relative viability: 0.419
NCI-H1755; first compound 1.265 µM
  relative viability: 0.449
NCI-H1755; first compound 4 µM
  relative viability: 0.516
EMC-BAC-2; first compound 0.04 µM
  relative viability: 1.09
EMC-BAC-2; first compound 0.1265 µM
  relative viability: 1.21
EMC-BAC-2; first compound 0.4 µM
  relative viability: 0.922
EMC-BAC-2; first compound 1.265 µM
  relative viability: 0.975
EMC-BAC-2; first compound 4 µM
  relative viability: 0.65
NCI-H522; first compound 0.04 µM
  relative viability: 0.795
NCI-H522; first compound 0.1265 µM
  relative viability: 0.842
NCI-H522; first compound 0.4 µM
  relative viability: 0.779
NCI-H522; first compound 1.265 µM
  relative viability: 0.846
NCI-H522; first compound 4 µM
  relative viability: 0.681
NCI-H23; first compound 0.04 µM
  relative viability: 0.483
NCI-H23; first compound 0.1265 µM
  relative viability: 0.27
NCI-H23; first compound 0.4 µM
  relative viability: 0.213
NCI-H23; first compound 1.265 µM
  relative viability: 0.235
NCI-H23; first compound 4 µM
  relative viability: 0.174
NCI-H1915; first compound 0.04 µM
  relative viability: 0.69
NCI-H1915; first compound 0.1265 µM
  relative viability: 0.697
NCI-H1915; first compound 0.4 µM
  relative viability: 0.689
NCI-H1915; first compound 1.265 µM
  relative viability: 0.741
NCI-H1915; first compound 4 µM
  relative viability: 0.463
HCC-366; first compound 0.04 µM
  relative viability: 0.286
HCC-366; first compound 0.1265 µM
  relative viability: 0.294
HCC-366; first compound 0.4 µM
  relative viability: 0.249
HCC-366; first compound 1.265 µM
  relative viability: 0.234
HCC-366; first compound 4 µM
  relative viability: 0.199
NCI-H1975; first compound 0.04 µM
  relative viability: 0.757
NCI-H1975; first compound 0.1265 µM
  relative viability: 0.756
NCI-H1975; first compound 0.4 µM
  relative viability: 0.603
NCI-H1975; first compound 1.265 µM
  relative viability: 0.328
NCI-H1975; first compound 4 µM
  relative viability: 0.348
CAL-12T; first compound 0.04 µM
  relative viability: 0.71
CAL-12T; first compound 0.1265 µM
  relative viability: 0.607
CAL-12T; first compound 0.4 µM
  relative viability: 0.501
CAL-12T; first compound 1.265 µM
  relative viability: 0.539
CAL-12T; first compound 4 µM
  relative viability: 0.399

Reference: the supplement of paper PMC10307832
